Converted amounts (≈) assume the structure as drawn. Read-outs that look alike come from different tables or passages of the source.
Experiments:
Assay in all cases: in vitro antibacterial activity, microtitration dilution method
Format in all cases: cell-based
[1] = system: Enterobacter cloacae MA 2646
Text: (§1) The compounds of the invention display antibacterial activity when tested by the microtitration dilution method as described in Heifetz, et al, Antimicr. Agents & Chemoth., 6, 124 (1974), which is incorporated herein by reference.
(§2) By use of the above reference method, the following minimum inhibitory concentration value (MICs in μg/ml) shown in Table I were obtained for representative compounds of the invention.

Escherichia coli Vogel = conditions: read-out: minimal inhibitory concentration (MIC)
Text: as §1, §2

Proteus rettgeri M 1771 = conditions: Providencia rettgeri, M1771, read-out: minimal inhibitory concentration (MIC)
Text: as §1, §2

[2] = system: Klebsiella pneumoniae MGH-2
Text: (§3) Agents & Chemoth., 6, 124 (1974), which is incorporated herein by reference.

[3] = system: Pseudomonas aeruginosa UI-18
Text: as §3

[4] = system: Staphylococcus aureus H 228
Text: as §3

[5] = system: Staphylococcus aureus UC-76
Text: as §3

[6] = system: Streptococcus faecalis MGH-2; conditions: Enterococcus faecalis
Text: as §3

[7] = system: Streptococcus pneumoniae SV-1
Text: as §3

[8] = system: Streptococcus pyogenes C-203
Text: as §3

[9] = MA2646, in vitro, Enterobacter cloacae MA 2646, read-out: minimal inhibitory concentration (MIC)
[10] = MGH2, in vitro, Klebsiella pneumoniae MGH-2, read-out: minimal inhibitory concentration (MIC)
[11] = UI18, in vitro, Pseudomonas aeruginosa UI-18, read-out: minimal inhibitory concentration (MIC)
[12] = Staphylococcus aureus, H228, read-out: minimal inhibitory concentration (MIC)
[13] = UC76, in vitro, Staphylococcus aureus UC-76, read-out: minimal inhibitory concentration (MIC)
[14] = MGH2, read-out: minimal inhibitory concentration (MIC)
[15] = SV1, in vitro, Streptococcus pneumoniae SV-1, read-out: minimal inhibitory concentration (MIC)
[16] = C203, in vitro, Streptococcus pyogenes C-203, read-out: minimal inhibitory concentration (MIC)
[17] = H228, in vitro, Staphylococcus aureus H 228, read-out: minimal inhibitory concentration (MIC)
[18] = MGH2, in vitro, Streptococcus faecalis MGH-2, read-out: minimal inhibitory concentration (MIC)
[19] = Enterobacter cloacae, MA2646, read-out: minimal inhibitory concentration (MIC)
[20] = Klebsiella pneumoniae, MGH2, read-out: minimal inhibitory concentration (MIC)
[21] = Pseudomonas aeruginosa, UI18, read-out: minimal inhibitory concentration (MIC)
[22] = Staphylococcus aureus, UC76, read-out: minimal inhibitory concentration (MIC)

Row | SMILES | MIC [1, 9] [µg/mL] | MIC (Escherichia coli Vogel) [µg/mL] | MIC (Proteus rettgeri M 1771) [µg/mL] | MIC [2, 10] [µg/mL] | MIC [3, 11] [µg/mL] | MIC [4, 12] [µg/mL] | MIC [5, 13] [µg/mL] | MIC [6, 14] [µg/mL] | MIC [7, 15] [µg/mL] | MIC [8, 16] [µg/mL] | MIC [4, 17] [µg/mL] | MIC [6, 18] [µg/mL] | MIC ([8]; Streptococcus pyogenes, C203, read-out: minimal inhibitory concentration (MIC)) [µg/mL] | MIC [1, 19] [µg/mL] | MIC [2, 20] [µg/mL] | MIC [3, 21] [µg/mL] | MIC [5, 22] [µg/mL] | MIC ([7]; Streptococcus pneumoniae, SV1, read-out: minimal inhibitory concentration (MIC)) [µg/mL]
1 | CCn1cc(C(=O)O)c(=O)c2cc(F)c(N3CC4CCCC3CN4)c(F)c21 (stereo not drawn) [Example 1, 7-(6,8-Diazabicyclo[3.2.2]non-6-yl)-1-ethyl-6,8-difluoro-1,4-dihydro-4-oxo-3-quinolinecarboxylic acid] | 0.4 (≈ 1.06 µM) | 0.4 (≈ 1.06 µM) | 0.8 (≈ 2.12 µM) | 0.8 (≈ 2.12 µM) | 3.1 (≈ 8.21 µM) | 0.2 (≈ 0.53 µM) | 0.05 (≈ 0.132 µM) | 0.8 (≈ 2.12 µM) | 0.8 (≈ 2.12 µM) | 1.6 (≈ 4.24 µM) | – | – | – | – | – | – | – | –
2 | O=C(O)c1cn(C2CC2)c2c(F)c(N3CC4CCCC3CN4)c(F)cc2c1=O (stereo not drawn) [Example 2, 1-Cyclopropyl-7-(6,8-diazabicyclo[3.2.2]non-6-yl)-6,8-difluoro-1,4-dihydro-4-oxo-3-quinolinecarboxylic acid] | 0.1 (≈ 0.257 µM) | 0.4 (≈ 1.03 µM) | 0.4 (≈ 1.03 µM) | 0.2 (≈ 0.514 µM) | 0.8 (≈ 2.05 µM) | – | 0.05 (≈ 0.128 µM) | – | 0.2 (≈ 0.514 µM) | – | 0.05 (≈ 0.128 µM) | 0.2 (≈ 0.514 µM) | 0.8 (≈ 2.05 µM) | – | – | – | – | –
3 | O=C(O)c1cn(C2CC2)c2nc(N3CC4CCCC3CN4)c(F)cc2c1=O (stereo not drawn) [Example 3, 1-cyclopropyl-7-(6,8-diazabicyclo[3.2.2]non-6-yl)-6-fluoro-1,4-dihydro-4-oxo-1,8-naphthyridine-3-carboxylic acid] | – | 0.03 (≈ 0.0806 µM) | 0.4 (≈ 1.07 µM) | – | – | 0.2 (≈ 0.537 µM) | 0.1 (≈ 0.269 µM) | – | 0.05 (≈ 0.134 µM) | 0.1 (≈ 0.269 µM) | – | 0.2 (≈ 0.537 µM) | – | 0.05 (≈ 0.134 µM) | 0.1 (≈ 0.269 µM) | 0.4 (≈ 1.07 µM) | – | –
4 | CCn1cc(C(=O)O)c(=O)c2cc(F)c(N3CC4CCCC3CN4C)c(F)c21 (stereo not drawn) [Example 4, 1-Ethyl-6,8-difluoro-1,4-dihydro-7-(8-methyl-6,8-diazabicyclo[3.2.2]non-6-yl)-4-oxo-3-quinolinecarboxylic acid] | 1.6 (≈ 4.09 µM) | 0.8 (≈ 2.04 µM) | 6.3 (≈ 16.1 µM) | 1.6 (≈ 4.09 µM) | 12.5 (≈ 31.9 µM) | 0.2 (≈ 0.511 µM) | 0.1 (≈ 0.255 µM) | 0.8 (≈ 2.04 µM) | 0.8 (≈ 2.04 µM) | 1.6 (≈ 4.09 µM) | – | – | – | – | – | – | – | –
5 | CCN[C@@H]1C[C@H]2CC[C@@H](C1)N2c1nc2c(cc1F)c(=O)c(C(=O)O)cn2C1CC1 [Example 5a, 1-cyclopropyl-7-[3-exo(ethylamino)-8-azabicyclo[3.2.1]oct-8-yl]-6-fluoro-1,4-dihydro-4-oxo-1,8-naphthyridine-3-carboxylic acid] | 0.8 (≈ 2 µM) | 0.2 (≈ 0.499 µM) | 3.1 (≈ 7.74 µM) | 0.4 (≈ 0.999 µM) | 1.6 (≈ 4 µM) | 0.2 (≈ 0.499 µM) | – | – | 0.2 (≈ 0.499 µM) | 0.4 (≈ 0.999 µM) | – | 0.4 (≈ 0.999 µM) | – | – | – | – | 0.2 (≈ 0.499 µM) | –
6 | CCN[C@H]1C[C@H]2CC[C@@H](C1)N2c1nc2c(cc1F)c(=O)c(C(=O)O)cn2C1CC1 [Example 5b, 1-Cyclopropyl-7-[3-endo(ethylamino)-8-azabicyclo[3.2.1]oct-8-yl]-6-fluoro-1,4-dihydro-4-oxo-1,8-naphthyridine-3-carboxylic acid] | 0.8 (≈ 2 µM) | 0.4 (≈ 0.999 µM) | 3.1 (≈ 7.74 µM) | 0.8 (≈ 2 µM) | 3.1 (≈ 7.74 µM) | – | 0.4 (≈ 0.999 µM) | 0.8 (≈ 2 µM) | 0.4 (≈ 0.999 µM) | 0.4 (≈ 0.999 µM) | 0.8 (≈ 2 µM) | – | – | – | – | – | – | –
7 | CCN[C@H]1C[C@H]2CC[C@@H](C1)N2c1c(F)cc2c(=O)c(C(=O)O)cn(C3CC3)c2c1F [Example 5c, 1-cyclopropyl-7-[3-endo(ethylamino)-8-azabicyclo[3.2.1]oct-8-yl]-6,8-difluoro-1,4-dihydro-4-oxo-3-quinolinecarboxylic acid] | 0.4 (≈ 0.958 µM) | 0.4 (≈ 0.958 µM) | 3.1 (≈ 7.43 µM) | 0.8 (≈ 1.92 µM) | 3.1 (≈ 7.43 µM) | – | – | 0.8 (≈ 1.92 µM) | 0.4 (≈ 0.958 µM) | 0.4 (≈ 0.958 µM) | 0.8 (≈ 1.92 µM) | – | – | – | – | – | 0.2 (≈ 0.479 µM) | –
8 | CCN[C@@H]1C[C@H]2CC[C@@H](C1)N2c1c(F)cc2c(=O)c(C(=O)O)cn(C3CC3)c2c1F [Example 5d, 1-cyclopropyl-7-[3-exo(ethylamino)-8-azabicyclo[3.2.1]oct-8-yl]-6,8-difluoro-1,4-dihydro-4-oxo-3-quinolinecarboxylic acid] | 0.2 (≈ 0.479 µM) | 0.2 (≈ 0.479 µM) | 1.6 (≈ 3.83 µM) | 0.4 (≈ 0.958 µM) | 3.1 (≈ 7.43 µM) | 0.2 (≈ 0.479 µM) | 0.1 (≈ 0.24 µM) | – | 0.1 (≈ 0.24 µM) | 0.1 (≈ 0.24 µM) | – | 0.2 (≈ 0.479 µM) | – | – | – | – | – | –
9 | CCN[C@@H]1C[C@H]2CC[C@@H](C1)N2c1cc2c(cc1F)c(=O)c(C(=O)O)cn2C1CC1 [Example 5e, 1-cyclopropyl-7-[3-exo(ethylamino)-8-azabicyclo[3.2.1]oct-8-yl]-6-fluoro-1,4-dihydro-4-oxo-3-quinolinecarboxylic acid] | 0.8 (≈ 2 µM) | 0.4 (≈ 1 µM) | 3.1 (≈ 7.76 µM) | 0.8 (≈ 2 µM) | 3.1 (≈ 7.76 µM) | – | – | – | 0.2 (≈ 0.501 µM) | 0.4 (≈ 1 µM) | 0.4 (≈ 1 µM) | 0.4 (≈ 1 µM) | – | – | – | – | 0.2 (≈ 0.501 µM) | –
10 | CCN[C@H]1C[C@H]2CC[C@@H](C1)N2c1cc2c(cc1F)c(=O)c(C(=O)O)cn2C1CC1 [Example 5f, 1-cyclopropyl-7-[3-endo(ethylamino)-8-azabicyclo[3.2.1]oct-8-yl]-6-fluoro-1,4-dihydro-4-oxo-3-quinolinecarboxylic acid] | 1.6 (≈ 4.01 µM) | 1.6 (≈ 4.01 µM) | 12.5 (≈ 31.3 µM) | 3.1 (≈ 7.76 µM) | 6.3 (≈ 15.8 µM) | – | 0.8 (≈ 2 µM) | – | – | 1.6 (≈ 4.01 µM) | 3.1 (≈ 7.76 µM) | 3.1 (≈ 7.76 µM) | – | – | – | – | – | 1.6 (≈ 4.01 µM)
11 | O=C(O)c1cn(C2CC2)c2cc(N3CC4CCCC3CN4)c(F)cc2c1=O (stereo not drawn) [Example 7, 1-Cyclopropyl-7-(6,8-diazabicyclo[3.2.2]non-6-yl)-6-fluoro-1,4-dihydro-4-oxo-3-quinolinecarboxylic acid] | – | 0.05 (≈ 0.135 µM) | 0.4 (≈ 1.08 µM) | – | – | – | 0.025 (≈ 0.0673 µM) | – | 0.05 (≈ 0.135 µM) | 0.05 (≈ 0.135 µM) | 0.1 (≈ 0.269 µM) | 0.1 (≈ 0.269 µM) | – | 0.05 (≈ 0.135 µM) | 0.1 (≈ 0.269 µM) | 0.4 (≈ 1.08 µM) | – | –
12 | O=C(O)c1cn(C2CC2)c2c(Cl)c(N3CC4CCCC3CN4)c(F)cc2c1=O (stereo not drawn) [Example 8, 8-Chloro-1-cyclopropyl-7-(6,8-diazabicyclo[3.2.2]non-6-yl)-6-fluoro-1,4-dihydro-4-oxo-3-quinolinecarboxylic acid] | 0.2 (≈ 0.493 µM) | 0.2 (≈ 0.493 µM) | 0.4 (≈ 0.986 µM) | 0.2 (≈ 0.493 µM) | 0.8 (≈ 1.97 µM) | 0.2 (≈ 0.493 µM) | 0.05 (≈ 0.123 µM) | – | 0.1 (≈ 0.246 µM) | 0.1 (≈ 0.246 µM) | – | 0.2 (≈ 0.493 µM) | – | – | – | – | – | –

Source: patent US4962108A, “Antibacterial quinoline compounds” (Warner-Lambert Company, priority 1988, dated 1990)
